Some results are limits rather than exact numbers.

This note sets out measurements from patent US8648086B2, “5,6-bicyclic heteroaryl-containing urea compounds as kinase inhibitors” (Ascepion Pharmaceuticals, Inc., priority 2009, dated 2014).

Assay [1] concerns the target T1, PDGFRβ (Homo sapiens, UniProt P09619).
T1 construct: expressed in transfected cells; host or cells: CHO cells, pcDNA3.1 plasmid
The assay is described as follows: PDGFRβ cell-based assay (phospho-PDGFRβ ELISA, transfected CHO cells). Particulars: compound at 100 nM, read-out: % PDGFRβ kinase activity remains. In short, it runs like this: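 CHO cells transiently transfected with full-length human PDGFRβ, serum-starved overnight in DMEM, then treated 2 h with compound (0.5–500 nM) before 20% FBS stimulation. Lysates of ~5×10^5 cells analysed by sandwich ELISA for phospho- and total PDGFRβ with streptavidin-HRP chemiluminescent detection.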
For orientation: In an ELISA, binding on a coated surface is turned into a signal by an enzyme label.

The test system of assay [2] is MDA-MB-231 human breast cancer cells. The assay is described as follows: In vivo anti-tumor efficacy, MDA-MB-231 xenograft. To be noted: Breast cancer MDA-MB-231, nu/nu Balb/c mice. The procedure: Female (nu/nu) Balb/c athymic mice at 4-6 weeks of age were injected subcutaneously (s.c.) with MDA-MB-231 human breast cancer cells, A549 human non-small cell lung cancer cells, U87-MG human glioblastoma cells, PC-3 human prostate cancer cells, HT-29 human colon cancer, BEL-7404 human hepatocellular carcinoma, or MKN-45 human gastric cancer cells (ATCC, 5×10^6 cells suspended in 100 μl DMEM medium). Treatment was initiated after the tumor mass grown from s.c. implanted tumor cells reached a median volume of 200-400 mm^3. Mice were randomized into groups with three in each group for small-sample efficacy tests such that the median tumor volume is nearly equal among all groups. For large-sample efficacy tests, mice were randomized into groups with thirteen or fourteen in each group. Each group was treated either with compounds (dissolved in 2:1 mixture of PEG400 and 0.01N HCl (v/v)) or without compounds (vehicle only, 2:1 mixture of PEG400 and 0.01N HCl (v/v)) once per day at dose 12.5, 25, 50 or 100 mg/kg by oral gavage. Tumor volumes were assessed at least twice weekly by caliper measurement from the start of treatment. Tumor volume was calculated using the formula ½×L×W^2 (L: length of tumor's long axis, W: length of tumor's short axis). Treatment was applied for at least two weeks or until the tumor volume reaches a size of ˜2500 mm^3 or greater. Mice were humanly sacrificed after the experiment.
(§1) The efficacy of compounds in reducing tumor growth was assessed by the index Tumor Growth Inhibition (TGI). TGI for a given treatment period was calculated using the group mean tumor volumes according to the formula: TGI=100×(VVehicle—group−VTreatment—group)÷VVehicle—group wherein VVehicle—group represents the mean tumor volume for the group treated with vehicle and VTreatment—group represents the mean tumor volume of the group treated with a compound.

Assay [3] has as its system BEL-7404 human hepatocellular carcinoma. Nature of the assay: In vivo anti-tumor efficacy, BEL-7404 xenograft. To be noted: Liver cancer BEL-7404, nu/nu Balb/c mice, 50 mg/kg oral once per day, n = 2 × 3. The method, then:
Female (nu/nu) Balb/c athymic mice at 4-6 weeks of age were injected subcutaneously (s.c.) with MDA-MB-231 human breast cancer cells, A549 human non-small cell lung cancer cells, U87-MG human glioblastoma cells, PC-3 human prostate cancer cells, HT-29 human colon cancer, BEL-7404 human hepatocellular carcinoma, or MKN-45 human gastric cancer cells (ATCC, 5×10^6 cells suspended in 100 μl DMEM medium). Treatment was initiated after the tumor mass grown from s.c. implanted tumor cells reached a median volume of 200-400 mm^3. Mice were randomized into groups with three in each group for small-sample efficacy tests such that the median tumor volume is nearly equal among all groups. […] Tumor volumes were assessed at least twice weekly by caliper measurement from the start of treatment. Tumor volume was calculated using the formula ½×L×W^2 (L: length of tumor's long axis, W: length of tumor's short axis). […]
as §1

The target in assay [4] is T2, EPHA2 (Homo sapiens, UniProt P29317).
T2 construct: purchased KINOMEscan service (Ambit Biosciences, San Diego)
The assay is described as follows: KINOMEscan competition binding assay, EPHA2. Particulars: compound at 100 nM; lower number indicates stronger hit. The procedure: (§2) A standard competition binding assay can be used to test the ability of a compound of this invention on competing with both intended and unintended kinases in vitro. To screen a compound against a large number of human kinases, a competition binding assay with an active-site dependent binding technology was performed by KINOMEscan service (Ambit Biosciences, San Diego, Cal., USA). Three components were combined in this assay—DNA-tagged kinase, immobilized ligand, and the test compound. The ability of the test compound to compete with the immobilized ligand was measured by quantitative PCR of the DNA of the DNA tag. A number of the compounds of this invention were screened at the concentration of 100 nM by this binding assay, and the results were reported as “% Ctrl,” and the lower number indicates stronger “hit” in this matrix.

For assay [5], the system named is HT-29 human colon cancer. The assay is described as follows: In vivo anti-tumor efficacy, HT-29 xenograft. Particulars: Colon cancer HT-29, nu/nu Balb/c mice, 50 mg/kg oral once per day, n = 2 × 3. The method, then:
Female (nu/nu) Balb/c athymic mice at 4-6 weeks of age were injected subcutaneously (s.c.) with MDA-MB-231 human breast cancer cells, A549 human non-small cell lung cancer cells, U87-MG human glioblastoma cells, PC-3 human prostate cancer cells, HT-29 human colon cancer, BEL-7404 human hepatocellular carcinoma, or MKN-45 human gastric cancer cells (ATCC, 5×10^6 cells suspended in 100 μl DMEM medium). Treatment was initiated after the tumor mass grown from s.c. implanted tumor cells reached a median volume of 200-400 mm^3. Mice were randomized into groups with three in each group for small-sample efficacy tests such that the median tumor volume is nearly equal among all groups. […] Tumor volumes were assessed at least twice weekly by caliper measurement from the start of treatment. Tumor volume was calculated using the formula ½×L×W^2 (L: length of tumor's long axis, W: length of tumor's short axis). […] The efficacy of compounds in reducing tumor growth was assessed by the index Tumor Growth Inhibition (TGI). TGI for a given treatment period was calculated using the group mean tumor volumes according to the formula: TGI=100×(VVehicle—group−VTreatment—group)÷VVehicle—group wherein VVehicle—group represents the mean tumor volume for the group treated with vehicle and VTreatment—group represents the mean tumor volume of the group treated with a compound.

Assay [6] addresses T3, c-Kit (Homo sapiens, UniProt P10721).
T3 construct: purchased KINOMEscan service (Ambit Biosciences, San Diego)
Nature of the assay: KINOMEscan competition binding assay, c-Kit. To be noted: compound at 100 nM; lower number indicates stronger hit. The method, then: as §2

Assay [7] deals with T4, CSF-1R (Homo sapiens, UniProt P07333).
T4 construct: purchased KINOMEscan service (Ambit Biosciences, San Diego)
Nature of the assay: KINOMEscan competition binding assay, CSF-1R. To be noted: compound at 100 nM; lower number indicates stronger hit. The method, then: as §2

Where [8] appears, read: 50 mg/kg oral once per day, n = 2 × 3.

T2 sequence (P29317 24-976): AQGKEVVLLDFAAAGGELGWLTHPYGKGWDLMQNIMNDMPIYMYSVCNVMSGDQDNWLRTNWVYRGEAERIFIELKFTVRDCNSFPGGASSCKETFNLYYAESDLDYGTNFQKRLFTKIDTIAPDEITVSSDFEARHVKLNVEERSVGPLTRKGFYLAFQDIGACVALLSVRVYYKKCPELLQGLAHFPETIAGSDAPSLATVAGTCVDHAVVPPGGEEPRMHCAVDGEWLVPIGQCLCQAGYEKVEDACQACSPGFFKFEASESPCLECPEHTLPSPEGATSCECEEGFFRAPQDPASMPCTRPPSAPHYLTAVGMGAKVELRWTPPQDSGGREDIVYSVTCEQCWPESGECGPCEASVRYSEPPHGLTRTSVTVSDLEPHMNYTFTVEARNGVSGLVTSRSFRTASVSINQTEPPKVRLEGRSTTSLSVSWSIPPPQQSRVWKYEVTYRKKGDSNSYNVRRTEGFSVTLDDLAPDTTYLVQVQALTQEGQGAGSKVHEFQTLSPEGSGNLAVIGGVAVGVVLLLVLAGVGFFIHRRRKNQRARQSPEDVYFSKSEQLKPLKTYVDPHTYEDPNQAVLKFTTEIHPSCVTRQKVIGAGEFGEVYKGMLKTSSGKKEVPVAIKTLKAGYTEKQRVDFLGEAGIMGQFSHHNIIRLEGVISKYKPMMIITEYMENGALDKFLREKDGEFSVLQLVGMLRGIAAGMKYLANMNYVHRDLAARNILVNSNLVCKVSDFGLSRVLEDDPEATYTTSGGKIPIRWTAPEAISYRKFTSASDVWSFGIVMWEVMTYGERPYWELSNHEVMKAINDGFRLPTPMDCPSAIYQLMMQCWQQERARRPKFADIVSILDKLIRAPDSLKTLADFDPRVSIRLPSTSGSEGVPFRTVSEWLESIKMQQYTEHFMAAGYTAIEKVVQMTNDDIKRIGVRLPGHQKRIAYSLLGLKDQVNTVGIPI
T4 sequence (P07333 20-972): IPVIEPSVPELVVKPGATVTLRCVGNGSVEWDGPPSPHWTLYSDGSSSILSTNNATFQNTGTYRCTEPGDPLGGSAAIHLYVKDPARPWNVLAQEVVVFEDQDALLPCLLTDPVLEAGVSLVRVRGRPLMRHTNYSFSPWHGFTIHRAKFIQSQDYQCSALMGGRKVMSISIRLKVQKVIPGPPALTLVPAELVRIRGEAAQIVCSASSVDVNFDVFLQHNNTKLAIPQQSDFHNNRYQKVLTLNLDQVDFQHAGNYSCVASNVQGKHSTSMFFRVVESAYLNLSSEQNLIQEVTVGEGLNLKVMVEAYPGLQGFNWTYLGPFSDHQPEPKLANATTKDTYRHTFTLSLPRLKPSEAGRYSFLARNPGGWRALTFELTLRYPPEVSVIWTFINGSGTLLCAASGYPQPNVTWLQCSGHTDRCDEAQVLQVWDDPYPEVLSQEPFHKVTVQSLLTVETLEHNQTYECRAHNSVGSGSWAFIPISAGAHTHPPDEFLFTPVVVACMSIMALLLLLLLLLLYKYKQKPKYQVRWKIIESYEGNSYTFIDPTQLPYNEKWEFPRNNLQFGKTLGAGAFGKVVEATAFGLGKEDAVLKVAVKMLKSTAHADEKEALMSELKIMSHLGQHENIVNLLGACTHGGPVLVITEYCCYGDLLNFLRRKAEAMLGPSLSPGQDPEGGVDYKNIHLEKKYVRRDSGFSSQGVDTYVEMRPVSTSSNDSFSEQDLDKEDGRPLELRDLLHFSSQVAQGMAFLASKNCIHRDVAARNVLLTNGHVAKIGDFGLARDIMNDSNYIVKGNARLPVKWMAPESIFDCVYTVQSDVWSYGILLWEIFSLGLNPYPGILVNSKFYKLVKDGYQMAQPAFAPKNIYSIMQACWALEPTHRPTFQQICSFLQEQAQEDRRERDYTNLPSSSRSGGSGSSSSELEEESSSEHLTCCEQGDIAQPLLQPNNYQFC
T1 sequence (P09619 33-1106, species assumed): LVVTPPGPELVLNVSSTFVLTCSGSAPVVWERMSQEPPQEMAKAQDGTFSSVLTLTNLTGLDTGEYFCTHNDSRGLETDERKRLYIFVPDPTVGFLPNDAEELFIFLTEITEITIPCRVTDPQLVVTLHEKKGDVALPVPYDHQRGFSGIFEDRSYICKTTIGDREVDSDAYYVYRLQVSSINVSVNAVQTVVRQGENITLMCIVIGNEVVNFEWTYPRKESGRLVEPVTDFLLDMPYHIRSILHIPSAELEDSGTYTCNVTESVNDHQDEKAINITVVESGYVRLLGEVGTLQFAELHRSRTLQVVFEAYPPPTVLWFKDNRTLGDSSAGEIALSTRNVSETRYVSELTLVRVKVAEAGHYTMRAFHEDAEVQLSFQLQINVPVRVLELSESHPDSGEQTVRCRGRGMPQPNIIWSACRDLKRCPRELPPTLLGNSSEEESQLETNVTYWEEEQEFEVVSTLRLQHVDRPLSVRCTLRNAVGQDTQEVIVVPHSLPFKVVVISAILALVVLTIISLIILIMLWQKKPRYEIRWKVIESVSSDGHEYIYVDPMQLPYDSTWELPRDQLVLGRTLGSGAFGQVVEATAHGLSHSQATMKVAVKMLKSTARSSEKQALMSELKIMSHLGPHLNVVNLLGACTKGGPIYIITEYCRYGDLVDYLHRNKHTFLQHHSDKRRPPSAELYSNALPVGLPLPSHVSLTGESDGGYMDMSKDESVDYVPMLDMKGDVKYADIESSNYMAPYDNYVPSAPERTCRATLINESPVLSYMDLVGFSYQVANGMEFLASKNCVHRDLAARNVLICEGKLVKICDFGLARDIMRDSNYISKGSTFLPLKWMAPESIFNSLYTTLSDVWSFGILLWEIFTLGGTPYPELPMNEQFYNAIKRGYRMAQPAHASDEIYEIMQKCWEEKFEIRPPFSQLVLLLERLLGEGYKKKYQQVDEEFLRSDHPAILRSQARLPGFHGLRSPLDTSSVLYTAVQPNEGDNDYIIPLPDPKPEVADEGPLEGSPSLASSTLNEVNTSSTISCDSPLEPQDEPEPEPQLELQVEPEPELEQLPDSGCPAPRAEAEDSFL
T3 sequence (P10721 26-976): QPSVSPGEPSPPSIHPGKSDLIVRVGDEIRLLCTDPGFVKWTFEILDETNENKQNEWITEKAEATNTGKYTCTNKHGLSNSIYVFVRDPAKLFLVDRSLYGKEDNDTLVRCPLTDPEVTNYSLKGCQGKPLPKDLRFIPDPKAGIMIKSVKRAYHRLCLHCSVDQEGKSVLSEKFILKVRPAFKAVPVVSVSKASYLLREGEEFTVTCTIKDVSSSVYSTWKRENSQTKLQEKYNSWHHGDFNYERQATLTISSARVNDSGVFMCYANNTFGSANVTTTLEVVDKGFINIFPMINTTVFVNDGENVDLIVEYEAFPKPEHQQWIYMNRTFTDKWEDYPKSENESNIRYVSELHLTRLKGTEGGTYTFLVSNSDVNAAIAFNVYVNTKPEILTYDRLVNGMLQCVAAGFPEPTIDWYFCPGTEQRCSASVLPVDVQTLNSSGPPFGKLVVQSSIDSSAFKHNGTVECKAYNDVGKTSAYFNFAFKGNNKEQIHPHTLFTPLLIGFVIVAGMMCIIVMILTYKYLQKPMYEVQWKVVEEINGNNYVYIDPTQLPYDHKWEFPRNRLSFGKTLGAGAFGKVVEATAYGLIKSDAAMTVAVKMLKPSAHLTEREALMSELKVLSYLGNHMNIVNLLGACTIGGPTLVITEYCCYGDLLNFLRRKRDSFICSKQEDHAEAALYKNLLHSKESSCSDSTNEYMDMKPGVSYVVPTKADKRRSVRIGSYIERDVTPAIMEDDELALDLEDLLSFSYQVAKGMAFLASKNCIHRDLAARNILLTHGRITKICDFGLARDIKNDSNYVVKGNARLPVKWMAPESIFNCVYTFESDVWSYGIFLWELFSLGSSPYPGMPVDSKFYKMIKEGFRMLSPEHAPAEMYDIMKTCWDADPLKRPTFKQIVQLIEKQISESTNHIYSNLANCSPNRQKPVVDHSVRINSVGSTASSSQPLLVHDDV

Consider `Cl.O=C(Nc1cccc(C(F)(F)F)c1)Nc1cccc2c1ccn2Cc1ccnc2[nH]ccc12` [Example 51, 1-(3-Trifluoromethylphenyl)-3-[1-(1H-pyrrolo[2,3-b]pyridin-4-ylmethyl)-1H-indol-4-yl]urea hydrochloride], for which, in assay [1], the remaining activity at 0.1 µM is at least 70%. In addition, in assay [2] (setting [8]), the “Tumor Growth Inhibition (TGI)” value was “A (the TGI is greater or equal to 50%)”.
For the molecule `Cl.O=C(Nc1cc(Cl)ccc1F)Nc1cccc2c1ccn2Cc1ccnc2[nH]ccc12` [Example 56, 1-(2-Fluoro-5-chlorophenyl)-3-[1-(1H-pyrrolo[2,3-b]pyridin-4-ylmethyl)-1H-indol-4-yl]urea hydrochloride], the “Tumor Growth Inhibition (TGI)” value is on record as “A (the TGI is greater or equal to 50%)” in assay [3]; “A (the TGI is greater or equal to 50%)” in assay [5]; “A (the TGI is greater or equal to 50%)” in assay [2] (12.5 mg/kg oral once per day, n = 6 × 14); “A (the TGI is greater or equal to 50%)” in assay [2] (25 mg/kg oral once per day, n = 6 × 14); “A (the TGI is greater or equal to 50%)” in assay [2] (setting [8]); “A (the TGI is greater or equal to 50%)” in assay [2] (50 mg/kg oral once per day, n = 6 × 14). For the same molecule, in assay [2] (100 mg/kg oral once per day, n = 6 × 14), the “Tumor Growth Inhibition (TGI)” value is reported as “A (the TGI is greater or equal to 50%)”. The “EPHA2 % Ctrl” value in assay [4] was 12 % Ctrl. Further, the “c-Kit % Ctrl” value in assay [6] worked out at 3.8 % Ctrl. In addition, in assay [7], the “CSF-1R % Ctrl” value is recorded as 3.4 % Ctrl.
